The values below are quoted from earlier work in US8790676B2, “Microencapsulated pesticide” (priority 2005, dated 2014).

Where two headings read alike, the source gives them in different places. Where only a bound is given, the exact number is not on record here.

For the compound `CCN(Cc1ccc(Cl)nc1)/C(=C/[N+](=O)[O-])NC` [Nitempyram, (E)-N-(6-chloro-3-pyridylmethyl)-N-ethyl-N′-methyl-2-nitrovinylidenediamine], the water-solubility (pH 7) is greater than 590 mg/mL. On to “(E)-1-(2-chloro-1,3-thiazol-5-yl)-3-methyl-2-nitroguanidine [Clothianidin]”, for which the water-solubility (at pH 4.0, 20° C.) was 0.304 mg/mL.
